Data on 1 compound can be found in US20140142613A1, “INSTRUMENT FOR CAPTURING FREE THROMBI” (Toray Industries, Inc., priority 2011, published 2014).

Each structure is given as a SMILES string.

For the assay, the system named is citrated blood. The assay can be described thus: Measurement of whole blood clotting time (Sonoclot, ACT ONSET value). Set-up: species or system human. The protocol: In a cuvette (NON-ACTIVATED CLOTTING TEST KIT), 18 μL of physiological saline was placed, and 14.8 μL of Calcicol was added thereto, followed by further adding 342 μL of the citrated blood to the resulting mixture. The mixture was then subjected to measurement using a Sonoclot coagulation & Platelet Function Analyzer (IMI Corporation), and the obtained ACT ONSET value was regarded as the whole blood clotting time.

Regarding `CC1CNc2c(cccc2S(=O)(=O)N[C@@H](CCCNC(=N)N)C(=O)N2CC[C@@H](C)C[C@@H]2C(=O)O)C1` (mixture of isomers) [argatroban, (2R,4R)-4-methyl-1-((2S)-2-{[(3RS)-3-methyl-1,2,3,4-tetrahydroquinolin-8-yl]sulfonyl}amino-5-guanidinopentanoyl)piperidine-2-carboxylic acid], the “whole blood clotting time” value runs as follows: (2 μM argatroban solution instead of physiological saline) 531 s; (10 μM argatroban solution instead of physiological saline) 746 s; (20 μM argatroban solution instead of physiological saline) 849 s.
